US20230190685A1, “FORMULATION” (UNION Therapeutics A/S, priority 2020, published 2023)
pEC50: −log10 of the molar value.

Experiments:
Type in all cases: cell-based
SARS-CoV-2 D614G strain = system: SARS-CoV-2 D614G strain
[1] = system: European D614G strain of SARS-CoV-2 (BavPat1/2020)
[2] = system: SARS-CoV-2 (D614G strain); settings: read-out: EC50, replication of SARS-CoV-2

In the case of O=C(Nc1ccc([N+](=O)[O-])cc1Cl)c1cc(Cl)ccc1O [niclosamide ethanolamine], the pEC50 (SARS-CoV-2 D614G strain) was 7.22, the “reduction of intracellular viral RNA level versus non-treated control” value [1] was 3 fold and the pEC50 ([1]; read-out: EC50, apical infectious titer (TCID50)) was 6.02. The pEC50 [2] was 7.00.
